# According to patent US4591637A, “Open chain-morpholino adriamycins” (priority 1985, dated 1986):
# Like-named read-outs stand apart in the source and are kept apart here.
# Experiments:
# [1] = system: DNA synthesis in L-1210 Cells; assay: inhibition of DNA synthesis in L1210 cells in vitro; format: cell-based; details: Mus musculus
# Experimental: (§1) An in vitro test measured inhibition of DNA and RNA synthesis in L-1210 Cells in the method described by Tong, G., et al, J Med Chem (1976) 19:395. ED50 levels (the dose at which 50% inhibition occurs) were computed and ED50 ratios for DNA/RNA determined.
# (§2) The compounds prepared in Examples 1-5 were tested for in vitro DNA and RNA synthesis inhibition activity and in vivo for ability to increase survival time in mice injected with P-388 leukemia cells as described above. The relative solubility in octanol and phosphate buffer, expressed as log10 p, was also determined, as well as the ΔTm of isolated helical DNA synthesized in the in vitro test.
# [2] = system: RNA synthesis in L-1210 Cells; assay: inhibition of RNA synthesis in L1210 cells in vitro; format: cell-based; details: Mus musculus
# Experimental: as §1, §2
# [3] = system: isolated helical DNA; assay: ΔTm of isolated helical DNA; format: binding
# Experimental: as §2
# [4] = physchem; format: physicochemical; details: octanol-phosphate buffer, pH 7.4
# Experimental: as §2
# [5] = system: P-388 leukemia; assay: survival time of mice injected with P-388 leukemia cells; format: in vivo; details: mouse P388, qd 1, 10 mg/kg; T/C = treated survival time/untreated survival time×100
# Experimental: Survival times and % T/C (treated survival time/untreated survival time×100) were determined, as well as dosage levels required.
# The relative solubility in octanol and phosphate buffer, expressed as log10 p, was also determined, as well as the ΔTm of isolated helical DNA synthesized in the in vitro test.
# [6] = L1210 cells, DNA synthesis, ED50 = dose at which 50% inhibition occurs, read-out: L1210 cells inhib of synth, ED50, DNA
# [7] = L1210 cells, RNA synthesis, ED50 = dose at which 50% inhibition occurs, read-out: L1210 cells inhib of synth, ED50, RNA
# [8] = read-out: log10 p, octanol-phosphate buffer at pH 7.4
# [9] = L1210, read-out: L1210 cells inhib of synth, ED50, DNA
# [10] = L1210, read-out: L1210 cells inhib of synth, ED50, RNA
Compound,"IC50 [1, 6]","IC50 [2, 7]",ΔTm of isolated helical DNA [3],"logD [4, 8]",logD [4],"Mouse P388 qd 1, % T/C (mg/kg) [5]","IC50 [1, 9]","IC50 [2, 10]"
"COc1cccc2c1C(=O)c1c(O)c3c(c(O)c1C2=O)C[C@@](O)(C(C)=O)C[C@@H]3O[C@H]1C[C@H](N)[C@H](O)[C@H](C)O1 [Daunorubicin, daunorubicin, reference compound]",660 nM,330 nM,10.5 °C,0.66,–,–,–,–
"COc1cccc2c1C(=O)c1c(O)c3c(c(O)c1C2=O)C[C@@](O)(C(=O)CO)C[C@@H]3O[C@H]1C[C@H](N)[C@H](O)[C@H](C)O1 [Doxorubicin, doxorubicin, reference compound]",1600 nM,580 nM,12.8 °C,–,0.07,258 % T/C,–,–
"COCC(C#N)N[C@H]1C[C@H](O[C@H]2C[C@](O)(C(C)=O)Cc3c(O)c4c(c(O)c32)C(=O)c2c(OC)cccc2C4=O)O[C@@H](C)[C@H]1O (stereo partly drawn) [N--(1-cyano-2-methoxy-ethyl)daunorubicin, N-(1-cyano-2-methoxyethyl)Dau]",–,–,–,2.64,–,–,510 nM,510 nM
"COCC(C#N)N[C@H]1C[C@H](O[C@H]2C[C@](O)(C(=O)CO)Cc3c(O)c4c(c(O)c32)C(=O)c2c(OC)cccc2C4=O)O[C@@H](C)[C@H]1O (stereo partly drawn) [N--(1-cyano-2-methoxy-ethyl)doxorubicin, N-(1-cyano-2-methoxyethyl)doxorubicin]",–,–,12.5 °C,–,–,–,800 nM,400 nM
"COc1cccc2c1C(=O)c1c(O)c3c(c(O)c1C2=O)C[C@@](O)(C(C)=O)C[C@@H]3O[C@H]1C[C@H](NCC#N)[C@H](O)[C@H](C)O1 [N--(cyanomethyl)-daunorubicin, N-(cyanomethyl)daunorubicin]",–,–,11.7 °C,–,–,–,1750 nM,820 nM
COc1cccc2c1C(=O)c1c(O)c3c(c(O)c1C2=O)C[C@@](O)(C(=O)CO)C[C@@H]3O[C@H]1C[C@H](NCC#N)[C@H](O)[C@H](C)O1 [N--(cyanomethyl)-doxorubicin],–,–,13.9 °C,–,–,–,1200 nM,290 nM
